Test results reported in publication PMC10761660, “Preclinical evaluation of an ^18F-labeled N^ε-acryloyllysine piperazide for covalent targeting of transglutaminase 2” (EJNMMI Radiopharmacy and Chemistry, 2024).

Experiments:
Liver microsome assay = assay type: in vitro ADME, murine; settings: 40 µM, after 60 min
Protocol: Microsome experiments with [^18F]7b in the presence of NADPH were performed according to the procedure recently described by us with slight modifications (Lemm et al. [2022]). […] [^18F]7b dissolved in 0.5% ethanol/PBS (100 µL; 0.2% ethanol final, e.g. 108 MBq/mL or 4.1 µM final) was mixed with PBS (112.5 µL) and murine liver microsomes (MLM, 12.5 µL of 20 mg/mL stock; 1 mg/mL final; Gibco™ Cat. No. MSMCPL, Lot. No. MS053-A) in a 1.5 mL Eppendorf tube and the mixture was warmed for 5 min at 37 °C. Subsequently, NADPH (25 µL of freshly prepared 20 mM solution in PBS, 2 mM final) was added and the mixture was incubated at 37 °C. As a control incubation, the NADPH solution was replaced by PBS. At distinct time points (5, 10, 15, 30, and 60 min), an aliquot (40 µL) was withdrawn and added to ice-cold CH3CN (160 µL). The mixture was vortexed for 30 s, stored on ice for 4 min and centrifuged (5 min at 16,100 × g). The resulting supernatant was used for radio-HPLC and radio-TLC analyses. For radio-HPLC, the Shimadzu Nexera X2 UHPLC system described above including the conditions for analysis was used. Radio-TLC was carried out on reversed-phase TLC plates (ALUGRAM RP-18W/UV254 from Macherey–Nagel, Düren, Germany) with a mobile phase of 40% CH3CN in water containing 0.1% trifluoroacetic acid. Visualization of radioactive spots and subsequent analysis was conducted as described above.
Testosterone (40 µM final) was used as positive control for the activity of the MLM and was separately treated and analyzed after incubation times of 5, 10, 15, 30, and 60 min as described above (0% ethanol final; HPLC gradient profile: 45% eluent B for 10 min followed by washing of the column with 45% to 95% eluent B in 1 min, 95% eluent B for 5 min, 95% to 45% eluent B in 1 min, 45% eluent B for 8 min; total time of 25 min).
For that, solutions of [^18F]7b in 0.5% ethanol/PBS (10 µL; 0.1% ethanol final, 17 MBq/mL or 1.14 µM final) were mixed with the respective tenfold concentrated solutions of 7b dissolved in 10% DMSO/PBS (5 µL, 1% DMSO final and 5/10/20/40/80 µM of 7b final), PBS (27.5 µL) and murine liver microsomes (2.5 µL of 20 mg/mL stock) in a 1.5 mL Eppendorf tube and the mixture was warmed for 5 min at 37 °C. Subsequently, NADPH (5 µL of freshly prepared 20 mM solution in PBS, 2 mM final) was added and the mixture was incubated at 37 °C. At distinct time points (5, 10, 15, 20, and 30 min), an aliquot (5 µL) was withdrawn and added to ice-cold CH3CN (40 µL). The subsequent steps were performed as described above including analysis by radio-TLC.
For the t1/2 approach at n.c.a. level, the obtained fractions of intact [^18F]7b (by radio-HPLC or radio-TLC analysis) were plotted against the time. Nonlinear regression was performed by one-phase decay (equation 1) as implemented in GraphPad Prism (GraphPad Prism 9.5.1.733), which provided the t1/2 values. The fraction at X = 0 min, Y0, was constrained to 1.0.1 Y0=Y0-Plateau×e^-k×X+Plateau
Subsequently, the intrinsic clearance, CLint (mL*min^−1*kg^−1), was calculated using equation 2 (Obach et al. [1997]; Schneider et al. [2019])2 CLint=ln2/t1/2min×fuinc×1/MLM(mg/mL)×microsomalprotein/liverweightmg/g×liverweight/bodyweightg/kg with the scaling factors of 60.1 mg/g (microsomal protein/liver weight for rats as no value for mice could be found) (Carlile et al. [1997]) and 87.5 g/kg (liver weight/body weight for mice) (Davies and Morris [1993]). The concentration of the MLMs was 1 mg/mL.
For the Vmax/Km approach, the obtained fractions of intact [^18F]7b (by radio-TLC analysis) were plotted against the time (fraction plot). The concentration plot was obtained by transformation of the fractions into concentrations of 7b by taking the experimentally determined molar activity of [^18F]7b into account (i.e. final concentration of 1.14, 6.16, 11.14, 21.14, 41.14, and 81.14 µM for 7b in the performed experiments). Both plots were analyzed by nonlinear regression according to one-phase decay (equation 1). […]

[1] = set-up: method as in Schuppan et al. [2021]; settings: patients with celiac disease; ref Schuppan et al. [2021]; cited from earlier work

Row | SMILES | consumption of positive control by MLM (Liver microsome assay) | effect on duodenal mucosa [1] | tolerability [1]
1 | C[C@]12CC[C@H]3[C@@H](CCC4=CC(=O)CC[C@@]43C)[C@@H]1CC[C@@H]2O [Testosterone, reference compound] | completely consumed |  | 
2 | CCC(CC)CNC(=O)Cn1cccc(NC(=O)[C@H](CC/C=C/C(=O)OC)NC(=O)c2cncn2C)c1=O [ZED1227] |  | attenuated damage of the duodenal mucosa | well-tolerated
